According to US8883410B2, “Method for determining the stability of organic methyleneamines in the presence of semicarbazide-sensitive amine oxidase” (Sanofi, priority 2007, dated 2014):

Target: T1, human SSAO T2 (Met211-Asn763), C-terminal 6xHIS tag (Homo sapiens, UniProt Q16853)
T1 construct: T2 (Met211-Asn763) Representing the Putative Catalytic Domain; expressed in transfected cells; cell lysate
T1 sequence (Q16853 211-763): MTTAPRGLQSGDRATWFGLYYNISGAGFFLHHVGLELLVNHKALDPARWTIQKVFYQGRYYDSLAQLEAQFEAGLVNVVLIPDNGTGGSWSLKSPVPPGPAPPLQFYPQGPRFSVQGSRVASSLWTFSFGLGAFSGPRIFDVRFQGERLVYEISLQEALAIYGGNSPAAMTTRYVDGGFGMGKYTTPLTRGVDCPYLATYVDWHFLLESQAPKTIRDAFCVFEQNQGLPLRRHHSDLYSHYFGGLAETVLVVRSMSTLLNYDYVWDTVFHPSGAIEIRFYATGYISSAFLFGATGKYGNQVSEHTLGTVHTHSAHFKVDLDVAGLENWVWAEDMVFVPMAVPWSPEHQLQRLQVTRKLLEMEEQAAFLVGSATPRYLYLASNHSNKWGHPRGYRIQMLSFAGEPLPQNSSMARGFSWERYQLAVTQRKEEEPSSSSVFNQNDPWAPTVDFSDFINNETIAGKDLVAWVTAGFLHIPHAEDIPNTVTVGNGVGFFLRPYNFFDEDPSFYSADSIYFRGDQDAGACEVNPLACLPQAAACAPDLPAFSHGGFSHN
Test: Benzylamine stability in lysate of cells expressing T2 SSAO with C-terminal 6xHIS tag, LC/MS/MS
Format: in vitro ADME
Method: 4) T2 (Met211-Asn763) Representing the Putative Catalytic Domain.
The expression constructs were prepared by cloning these PCR products into the pCDNA5-FRT-To-DEST vector (Invitrogen, Gateway System™). The forward and reverse DNA sequence of each construct was confirmed including expressed sequences and at least 100 base pairs either side of this. Stable cell lines for Flp-In CHO, Flp-In CHO T-Rex, and Flp-In HEK 293 (Invitrogen, Flp-In system™) were generated using these 6 constructs according to manufacturer's instructions. Cells were co-transfected with the regulatory vector, pOG44, and each of the pCDNA5-FRT-To-DEST constructs using Lipfectamine (Invitrogen) according to manufacturer's instructions. Thus, 18 cell lines were generated: CHO Flp-In full-length SSAO; CHO Flp-In full-length SSAO with C-terminal 6×HIS tag; CHO Flp-In T1 SSAO; CHO Flp-In T1 SSAO with C-terminal 6×HIS tag; CHO Flp-In T2 SSAO; CHO Flp-In T2 SSAO with C-terminal 6×HIS tag; CHO T-Rex Flp-In full-length SSAO; CHO T-Rex Flp-In full-length SSAO with C-terminal 6×HIS tag; CHO T-Rex Flp-In T1 SSAO; CHO T-Rex Flp-In T1 SSAO with C-terminal 6×HIS tag; CHO T-Rex Flp-In T2 SSAO; CHO Flp-In T2 SSAO with C-terminal 6×HIS tag; HEK 293 Flp-In full-length SSAO; HEK 293 Flp-In full-length SSAO with C-terminal 6×HIS tag; HEK 293 Flp-In T1 SSAO; HEK 293 Flp-In T1 SSAO with C-terminal 6×HIS tag; HEK 293 Flp-In T2 SSAO; HEK 293 Flp-In T2 SSAO with C-terminal 6×HIS tag.
Adherent CHO cells were cultured at 37° C., 5% CO2 in media containing Ham's F12, 10% fetal bovine serum, 2 mM L-glutamine, 1% Penicillin/Streptomycin, 300 μM hygromycin B. Adherent HEK 293 cells were cultured at 37° C., 5% CO2 in D-MEM (high glucose), 10% fetal bovine serum, 2 mM L-glutamine, and 200 μM hygromycin B. Stable transformants were identified by loss of zeocin resistance. Once the cells were 80% confluent, SSAO expression was induced by the addition of Tetracycline to 1 μg/mL. Following 18 hours, the cells were harvested using a trypsin treatment of 3 minutes, at room temperature. Cells were washed 3 times in phosphate buffered saline before flash freezing in liquid nitrogen.
For the preparation of cell lysate for activity testing, frozen cell pellets were resuspended in lysate buffer containing 10 mM Tris-HCl (pH 7.2), 150 mM NaCl, 1.5 mM MgCl2, 1% v/v NP-40 and incubated for 15 minutes on ice. Lysate was cleared by centrifugation 800×g for 10 minutes, 4° C. and stored in aliquots at −80° C. until use. Proteins were determined using Pierce Coomassie Protein Reagent, according to manufacturer's instructions.
For each assay run, 1 mL of cell lysate (1.5 mg/mL protein) was mixed with benzylamine to 2000 ng/mL final concentration. At each corresponding time point, […] the incubation mixture was transferred to a microcentrifuge tube (1.7 mL) and mixed with 50 μL of acetonitrile. The tubes were vortex mixed briefly to ensure complete mixing and then centrifuged at 10,000×g for 5 minutes. The supernatant was removed and 50 μL was transferred to an autosampler vial and mixed with 50 μL of water before LC/MS/MS analysis. Benzylamine remaining in the lysate was analyzed with LC/MS/MS method.
LC/MS/MS analysis was performed with a PE Sciex API 3000 mass spectrometer under the following conditions listed below and in Tables 1 and 2: […]

NCc1ccccc1 [Benzylamine]
Benzylamine Remaining (%) (CHO Flp-In T-Rex lysate, 0 min): 100% | Benzylamine Remaining (%) (CHO Flp-In T-Rex lysate, 10 min): 100% | Benzylamine Remaining (%) (CHO Flp-In T-Rex lysate, 2 h): 97% | Benzylamine Remaining (%) (CHO Flp-In lysate, 0 min): 100% | Benzylamine Remaining (%) (CHO Flp-In lysate, 10 min): 108% | Benzylamine Remaining (%) (CHO Flp-In lysate, 2 h): 102% | Benzylamine Remaining (%) (HEK293 lysate, 0 min): 100% | Benzylamine Remaining (%) (HEK293 lysate, 10 min): 100% | Benzylamine Remaining (%) (HEK293 lysate, 2 h): 117%
